Legend:
Test in all cases: KINOMEscan
Type in all cases: binding
Settings in all cases: 1 μM
EPHA1 = EPHA1 (Homo sapiens, UniProt P21709)
SGK3 = SGK3 (Homo sapiens, UniProt Q96BR1)
LATS1 = target: T1, LATS1 (Homo sapiens, UniProt O95835)
T1 construct: purchased Eurofins DiscoverX Corporation

[1] = target: T2, ABL1(Q252H)-nonphosphorylated (Homo sapiens, UniProt P00519, Q252H)
T2 construct: purchased Eurofins DiscoverX Corporation

[2] = target: RSK3(Kin.Dom.2-C-terminal) (Homo sapiens, UniProt Q15349)
[3] = target: TYK2(JH1domain-catalytic) (Homo sapiens, UniProt P29597)
CDKL3 = CDKL3 (Homo sapiens, UniProt Q8IVW4)
ERBB4 = ERBB4 (Homo sapiens, UniProt Q15303)
YANK1 = YANK1 (Homo sapiens, UniProt Q8WU08)
EGFR(T790M) = EGFR(T790M) (Homo sapiens, UniProt P00533, T790M)
PIK3CG = PIK3CG (Homo sapiens, UniProt P48736)
FGFR4 = FGFR4 (Homo sapiens, UniProt P22455)
CAMKK2 = target: T3, CAMKK2 (Homo sapiens, UniProt Q96RR4)
T3 construct: purchased Eurofins DiscoverX Corporation (KINOMEscan)

AKT1 = AKT1 (Homo sapiens, UniProt P31749)
EGFR(L861Q) = EGFR(L861Q) (Homo sapiens, UniProt P00533, L861Q)
MYLK4 = target: T4, MYLK4 (Homo sapiens, UniProt Q86YV6)
T4 construct: purchased Eurofins DiscoverX Corporation

PIK3CA(M1043I) = PIK3CA(M1043I) (Homo sapiens, UniProt P42336, M1043I)
SGK2 = SGK2 (Homo sapiens, UniProt Q9HBY8)
WEE1 = WEE1 (Homo sapiens, UniProt P30291)
[4] = target: RSK1(Kin.Dom.2-C-terminal) (Homo sapiens, UniProt Q15418)
EGFR(S752-I759del) = EGFR(S752-I759del) (Homo sapiens, UniProt P00533, DEL752-759)
CAMK2B = target: T5, CAMK2B (Homo sapiens, UniProt Q13554)
T5 construct: purchased Eurofins DiscoverX Corporation (KINOMEscan)

PIK3CA(E542K) = PIK3CA(E542K) (Homo sapiens, UniProt P42336, E542K)
ADCK4 = ADCK4 (Homo sapiens, UniProt Q96D53)
ULK3 = ULK3 (Homo sapiens, UniProt Q6PHR2)
NEK5 = target: T6, NEK5 (Homo sapiens, UniProt Q6P3R8)
T6 construct: purchased Eurofins DiscoverX Corporation

PIK3CA(E545A) = PIK3CA(E545A) (Homo sapiens, UniProt P42336, E545A)
SGK = SGK (Homo sapiens, UniProt O00141)
MST4 = target: T7, MST4 (Homo sapiens, UniProt Q9P289)
T7 construct: purchased Eurofins DiscoverX Corporation

PKAC-alpha = PKAC-alpha (Homo sapiens, UniProt P17612)
MET = target: T8, MET (Homo sapiens, UniProt P08581)
T8 construct: purchased Eurofins DiscoverX Corporation

CDK4-cyclinD3 = CDK4-cyclinD3 (Homo sapiens, UniProt P11802)
NDR1 = target: T9, NDR1 (Homo sapiens, UniProt Q15208)
T9 construct: purchased Eurofins DiscoverX Corporation

FLT1 = FLT1 (Homo sapiens, UniProt P17948)
CLK1 = CLK1 (Homo sapiens, UniProt P49759)
CSF1R = CSF1R (Homo sapiens, UniProt P07333)
SYK = target: T10, SYK (Homo sapiens, UniProt P43405)
T10 construct: purchased Eurofins DiscoverX Corporation

NDR2 = target: T11, NDR2 (Homo sapiens, UniProt Q9Y2H1)
T11 construct: purchased Eurofins DiscoverX Corporation

ABL1-phosphorylated = target: T12, ABL1-phosphorylated (Homo sapiens, UniProt P00519)
T12 construct: purchased Eurofins DiscoverX Corporation

GSK3B = target: T13, GSK3B (Homo sapiens, UniProt P49841)
T13 construct: purchased Eurofins DiscoverX Corporation

FGR = FGR (Homo sapiens, UniProt P09769)
PRKCQ = PRKCQ (Homo sapiens, UniProt Q04759)

Sequence of CDK4-cyclinD3 (P11802 whole entry): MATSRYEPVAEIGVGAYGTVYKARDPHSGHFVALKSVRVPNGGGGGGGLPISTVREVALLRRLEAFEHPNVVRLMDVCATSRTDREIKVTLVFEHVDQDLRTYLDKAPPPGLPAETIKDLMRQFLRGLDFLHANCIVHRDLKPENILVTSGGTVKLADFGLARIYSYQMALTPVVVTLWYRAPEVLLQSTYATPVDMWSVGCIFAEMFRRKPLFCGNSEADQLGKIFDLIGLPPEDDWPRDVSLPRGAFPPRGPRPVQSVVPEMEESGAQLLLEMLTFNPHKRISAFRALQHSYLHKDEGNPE
Sequence of CDK4-cyclinD3 (P30281 whole entry partner): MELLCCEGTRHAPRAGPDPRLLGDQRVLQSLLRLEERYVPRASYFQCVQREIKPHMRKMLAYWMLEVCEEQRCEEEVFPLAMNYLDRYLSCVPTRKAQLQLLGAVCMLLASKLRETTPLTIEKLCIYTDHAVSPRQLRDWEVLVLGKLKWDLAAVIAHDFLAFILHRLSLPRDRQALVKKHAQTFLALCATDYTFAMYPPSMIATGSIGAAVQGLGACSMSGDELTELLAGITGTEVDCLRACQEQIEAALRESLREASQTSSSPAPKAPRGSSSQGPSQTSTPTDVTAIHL
Sequence of PIK3CA(E542K) (P42336 whole entry E542K): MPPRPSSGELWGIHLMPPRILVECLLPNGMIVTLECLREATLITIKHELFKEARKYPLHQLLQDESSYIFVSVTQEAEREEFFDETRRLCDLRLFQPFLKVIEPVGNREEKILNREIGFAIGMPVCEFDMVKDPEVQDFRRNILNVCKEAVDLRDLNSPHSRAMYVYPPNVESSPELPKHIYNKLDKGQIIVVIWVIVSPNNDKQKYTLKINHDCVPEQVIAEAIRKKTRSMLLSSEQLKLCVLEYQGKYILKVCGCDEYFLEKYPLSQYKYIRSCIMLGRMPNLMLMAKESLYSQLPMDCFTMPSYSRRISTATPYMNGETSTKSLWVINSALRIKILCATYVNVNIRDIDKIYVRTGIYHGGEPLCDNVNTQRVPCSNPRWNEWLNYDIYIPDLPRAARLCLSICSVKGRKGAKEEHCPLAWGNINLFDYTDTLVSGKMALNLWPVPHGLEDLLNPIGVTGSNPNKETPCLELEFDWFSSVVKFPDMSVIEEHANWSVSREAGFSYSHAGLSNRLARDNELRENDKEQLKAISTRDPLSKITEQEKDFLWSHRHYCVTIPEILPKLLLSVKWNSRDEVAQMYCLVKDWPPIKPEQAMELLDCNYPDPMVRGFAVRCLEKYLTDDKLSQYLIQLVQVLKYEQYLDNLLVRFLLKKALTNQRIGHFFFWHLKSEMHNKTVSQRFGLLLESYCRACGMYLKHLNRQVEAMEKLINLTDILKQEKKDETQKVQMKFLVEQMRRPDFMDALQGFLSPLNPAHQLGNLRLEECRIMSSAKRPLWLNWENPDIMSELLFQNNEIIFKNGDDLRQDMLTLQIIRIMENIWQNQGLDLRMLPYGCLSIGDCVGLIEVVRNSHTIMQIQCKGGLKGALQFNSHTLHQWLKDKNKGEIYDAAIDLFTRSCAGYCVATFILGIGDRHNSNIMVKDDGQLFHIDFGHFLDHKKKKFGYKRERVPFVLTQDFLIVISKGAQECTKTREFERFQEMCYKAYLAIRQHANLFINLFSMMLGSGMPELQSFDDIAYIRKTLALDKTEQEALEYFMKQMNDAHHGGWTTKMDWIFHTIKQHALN
Sequence of CSF1R (P07333 20-972): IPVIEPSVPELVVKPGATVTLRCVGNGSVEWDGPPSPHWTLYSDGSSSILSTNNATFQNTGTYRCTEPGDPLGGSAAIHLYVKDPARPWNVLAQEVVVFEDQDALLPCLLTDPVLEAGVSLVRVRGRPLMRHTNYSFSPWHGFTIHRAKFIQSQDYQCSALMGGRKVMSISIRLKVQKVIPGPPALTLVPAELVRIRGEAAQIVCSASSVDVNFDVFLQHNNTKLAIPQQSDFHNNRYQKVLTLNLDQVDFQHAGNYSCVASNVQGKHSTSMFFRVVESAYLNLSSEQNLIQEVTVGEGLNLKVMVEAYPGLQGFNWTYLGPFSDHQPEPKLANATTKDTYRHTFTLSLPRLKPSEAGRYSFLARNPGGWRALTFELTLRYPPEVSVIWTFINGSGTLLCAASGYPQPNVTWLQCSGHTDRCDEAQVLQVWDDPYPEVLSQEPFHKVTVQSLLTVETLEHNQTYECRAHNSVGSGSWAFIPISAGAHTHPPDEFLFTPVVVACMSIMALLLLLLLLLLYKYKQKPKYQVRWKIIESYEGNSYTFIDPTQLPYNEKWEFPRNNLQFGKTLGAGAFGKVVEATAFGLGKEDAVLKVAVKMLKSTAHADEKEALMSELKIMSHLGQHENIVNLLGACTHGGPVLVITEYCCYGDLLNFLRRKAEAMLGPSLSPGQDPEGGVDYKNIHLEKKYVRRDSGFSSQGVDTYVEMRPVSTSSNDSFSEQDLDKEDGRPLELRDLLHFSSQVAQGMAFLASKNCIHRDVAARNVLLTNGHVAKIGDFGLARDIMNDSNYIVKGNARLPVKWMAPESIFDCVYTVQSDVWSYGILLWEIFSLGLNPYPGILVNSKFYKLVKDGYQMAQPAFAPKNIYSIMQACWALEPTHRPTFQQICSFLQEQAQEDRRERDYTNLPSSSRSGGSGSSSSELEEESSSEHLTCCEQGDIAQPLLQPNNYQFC
Sequence of ULK3 (Q6PHR2 whole entry): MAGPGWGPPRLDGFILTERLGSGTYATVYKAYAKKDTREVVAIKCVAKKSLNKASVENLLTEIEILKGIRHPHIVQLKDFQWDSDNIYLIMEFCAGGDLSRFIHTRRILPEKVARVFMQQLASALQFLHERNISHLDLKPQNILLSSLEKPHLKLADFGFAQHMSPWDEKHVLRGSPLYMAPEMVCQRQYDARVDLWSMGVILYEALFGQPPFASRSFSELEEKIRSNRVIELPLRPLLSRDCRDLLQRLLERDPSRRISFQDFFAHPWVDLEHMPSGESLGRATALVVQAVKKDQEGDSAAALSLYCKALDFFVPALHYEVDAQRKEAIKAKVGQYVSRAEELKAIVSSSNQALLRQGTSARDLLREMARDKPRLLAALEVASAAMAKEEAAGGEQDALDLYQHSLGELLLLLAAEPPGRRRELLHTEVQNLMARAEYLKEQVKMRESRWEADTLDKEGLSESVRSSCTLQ
T9 sequence (Q15208 whole entry): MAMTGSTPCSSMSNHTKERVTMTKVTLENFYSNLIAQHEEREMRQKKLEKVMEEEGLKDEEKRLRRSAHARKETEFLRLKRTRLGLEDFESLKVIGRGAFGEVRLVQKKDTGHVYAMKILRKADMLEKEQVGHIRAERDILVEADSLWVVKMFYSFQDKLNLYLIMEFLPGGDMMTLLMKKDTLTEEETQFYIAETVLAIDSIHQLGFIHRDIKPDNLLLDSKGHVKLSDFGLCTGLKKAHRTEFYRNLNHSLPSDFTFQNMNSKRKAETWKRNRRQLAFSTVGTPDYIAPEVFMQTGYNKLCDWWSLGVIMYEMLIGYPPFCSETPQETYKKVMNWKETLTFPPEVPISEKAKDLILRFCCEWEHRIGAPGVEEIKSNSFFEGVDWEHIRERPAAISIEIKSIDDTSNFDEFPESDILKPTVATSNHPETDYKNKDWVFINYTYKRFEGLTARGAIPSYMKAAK
Sequence of WEE1 (P30291 whole entry): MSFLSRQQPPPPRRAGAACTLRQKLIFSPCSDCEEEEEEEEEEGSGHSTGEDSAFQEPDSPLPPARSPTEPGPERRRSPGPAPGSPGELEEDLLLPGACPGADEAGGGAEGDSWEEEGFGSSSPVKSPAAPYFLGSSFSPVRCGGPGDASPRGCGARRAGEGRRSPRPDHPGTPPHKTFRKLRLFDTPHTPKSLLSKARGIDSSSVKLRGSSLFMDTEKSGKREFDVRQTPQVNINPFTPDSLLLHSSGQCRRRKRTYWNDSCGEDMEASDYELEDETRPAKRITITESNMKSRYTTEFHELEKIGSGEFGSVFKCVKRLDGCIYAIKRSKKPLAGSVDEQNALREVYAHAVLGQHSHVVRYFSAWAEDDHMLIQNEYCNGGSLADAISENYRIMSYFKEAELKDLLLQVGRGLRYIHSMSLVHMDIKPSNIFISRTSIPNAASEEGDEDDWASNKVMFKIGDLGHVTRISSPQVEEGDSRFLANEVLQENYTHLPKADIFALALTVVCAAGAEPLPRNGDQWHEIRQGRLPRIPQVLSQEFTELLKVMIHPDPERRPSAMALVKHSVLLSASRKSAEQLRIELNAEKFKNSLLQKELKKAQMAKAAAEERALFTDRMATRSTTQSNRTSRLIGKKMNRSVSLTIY
Sequence of SGK3 (Q96BR1 whole entry): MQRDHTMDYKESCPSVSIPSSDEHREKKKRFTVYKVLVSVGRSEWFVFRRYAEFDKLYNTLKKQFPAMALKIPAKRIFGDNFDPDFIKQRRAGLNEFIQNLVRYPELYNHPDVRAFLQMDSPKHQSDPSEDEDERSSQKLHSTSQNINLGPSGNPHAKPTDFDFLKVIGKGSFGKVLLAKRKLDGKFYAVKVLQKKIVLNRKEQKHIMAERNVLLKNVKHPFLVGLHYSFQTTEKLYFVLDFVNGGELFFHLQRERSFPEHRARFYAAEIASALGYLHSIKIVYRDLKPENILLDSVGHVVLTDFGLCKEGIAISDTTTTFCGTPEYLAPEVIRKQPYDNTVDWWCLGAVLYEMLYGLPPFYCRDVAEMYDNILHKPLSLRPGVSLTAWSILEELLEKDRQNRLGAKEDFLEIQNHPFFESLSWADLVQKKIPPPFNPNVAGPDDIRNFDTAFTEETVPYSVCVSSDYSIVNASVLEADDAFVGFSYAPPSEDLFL
Sequence of PIK3CA(M1043I) (P42336 whole entry M1043I): as the sequence (P42336 whole entry E542K) above, with K542E, M1043I counted along it
Sequence of RSK3(Kin.Dom.2-C-terminal) (Q15349 415-672 limits assumed): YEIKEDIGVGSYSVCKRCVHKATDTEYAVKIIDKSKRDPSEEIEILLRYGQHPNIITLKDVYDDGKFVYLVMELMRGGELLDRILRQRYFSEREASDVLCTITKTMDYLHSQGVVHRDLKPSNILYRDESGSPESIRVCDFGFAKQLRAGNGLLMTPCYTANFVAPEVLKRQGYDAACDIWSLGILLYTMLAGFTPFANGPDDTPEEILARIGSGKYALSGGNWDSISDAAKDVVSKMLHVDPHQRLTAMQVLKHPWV

## C=CC(=O)Nc1ccc(OC)c(Nc2cc(-c3[nH]c(CC)nc3-c3cccc(NC(=O)c4cccc5c4NC(=O)c4ccccc4N5)c3)ccn2)c1 [Compound 4]
EPHA1
  POC: 100% of control
SGK3
  POC: 90% of control
LATS1
  POC: 100% of control
[1]
  POC: 100% of control
[2]
  POC: 80% of control
[3]
  POC: 91% of control
CDKL3
  POC: 100% of control
ERBB4
  POC: 4.9% of control
YANK1
  POC: 84% of control
EGFR(T790M)
  POC: 12% of control
PIK3CG
  POC: 65% of control
FGFR4
  POC: 100% of control
CAMKK2
  POC: 95% of control
AKT1
  POC: 89% of control
EGFR(L861Q)
  POC: 2.7% of control
MYLK4
  POC: 95% of control
PIK3CA(M1043I)
  POC: 55% of control
SGK2
  POC: 83% of control
WEE1
  POC: 85% of control
[4]
  POC: 75% of control
EGFR(S752-I759del)
  POC: 6% of control
CAMK2B
  POC: 72% of control
PIK3CA(E542K)
  POC: 100% of control
ADCK4
  POC: 85% of control
ULK3
  POC: 100% of control
NEK5
  POC: 100% of control
PIK3CA(E545A)
  POC: 100% of control
SGK
  POC: 86% of control
MST4
  POC: 94% of control
PKAC-alpha
  POC: 100% of control
MET
  POC: 69% of control
CDK4-cyclinD3
  POC: 49% of control
NDR1
  POC: 73% of control
FLT1
  POC: 100% of control
CLK1
  POC: 100% of control
CSF1R
  POC: 100% of control
SYK
  POC: 63% of control
NDR2
  POC: 77% of control
ABL1-phosphorylated
  POC: 80% of control
GSK3B
  POC: 100% of control
FGR
  POC: 19% of control
PRKCQ
  POC: 18% of control

— PMC10879502, “Linking ATP and allosteric sites to achieve superadditive binding with bivalent EGFR kinase inhibitors” (Communications Chemistry, 2024)
